# Laboratory results from patent US20230083973A1, “SUBSTITUTED CYCLOPROPYL-2,2'-BIP[…], ANALOGUES THEREOF, AND METHODS USING SAME” (priority 2019, published 2023).
# pEC50: −log10 of the molar value. Like-named read-outs stand apart in the source and are kept apart here.
# System: HBsAg
# Assay: HBsAg assay: inhibition of HBsAg in HepG2.2.15 cells (chemiluminescence immunoassay of supernatant)
# Assay type: cell-based, hepatitis B virus
# Conditions: HBsAg in supernatant at day 6 after exposure to compound, 0.5% DMSO
# Procedure, shortened: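 Secreted HBsAg quantified by CLIA in day-6 supernatants of HepG2.2.15 cultures given compound dilutions at 0.5% final DMSO, with one compound/medium replenishment after 2–3 days. Dose-response fits gave EC50 (50% inhibition); viability checked separately by CellTiter-Glo.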
# [1] = read-out: sAg EC50, HepG2.2.15 cells
Structure (SMILES),pEC50 [1],"pEC50 (Hepatitis B virus, HepG2.2.15, 144 h, read-out: sAg EC50, HepG2.2.15 cells)"
"CC1(C)CN(c2cc(C3CC3c3cnc(-c4ncccn4)nc3)cc(F)c2F)C1 (single isomer, unassigned) [Example 139, trans-5-(2-(3-(3,3-Dimethylazetidin-1-yl)-4,5-difluorophenyl)cyclopropyl)-2,2′-bipyrimidine]",7.06,
"COc1cc(C2CC2c2cnc(-c3ncccn3)nc2-c2ccc3nc(C)sc3c2)ccc1F (single isomer, unassigned) [Example 140, trans-6-(5-(2-(4-Fluoro-3-methoxyphenyl)cyclopropyl)-[2,2′-bipyrimidin]-4-yl)-2-methylbenzo[d]thiazole]",4.43,
"COc1cc(C2CC2c2cnc(-c3ncccn3)nc2-c2ccc3nc(C)sc3c2)ccc1F (single isomer, unassigned) [Example 141, trans-6-(5-(2-(4-Fluoro-3-methoxyphenyl)cyclopropyl)-[2,2′-bipyrimidin]-4-yl)-2-methylbenzo[d]thiazole]",5.92,
"COc1cc(C2CC2c2cnc(-c3ncccn3)nc2-c2ccccc2)ccc1F (single isomer, unassigned) [Example 142, trans-5-(2-(4-Fluoro-3-methoxyphenyl)cyclopropyl)-4-phenyl-2,2′-bipyrimidine]",5.30,
"COc1cc(C2CC2c2cnc(-c3ncccn3)nc2-c2ccccc2)ccc1F (single isomer, unassigned) [Example 143, trans-5-(2-(4-Fluoro-3-methoxyphenyl)cyclopropyl)-4-phenyl-2,2′-bipyrimidine]",6.92,
"COc1cc(C2CC2c2cnc(-c3ncccn3)nc2N2CCCCC2)ccc1F (single isomer, unassigned) [Example 144, trans-5-(2-(4-Fluoro-3-methoxyphenyl)cyclopropyl)-4-(piperidin-1-yl)-2,2′-bipyrimidine]",4.60,
"COc1cc(C2CC2c2cnc(-c3ncccn3)nc2N2CCCCC2)ccc1F (single isomer, unassigned) [Example 145, trans-5-(2-(4-Fluoro-3-methoxyphenyl)cyclopropyl)-4-(piperidin-1-yl)-2,2′-bipyrimidine]",6.15,
"COc1cc(C2CC2c2cnc(-c3ncccn3)nc2)cc(OC)c1F (single isomer, unassigned) [Example 146, trans-5-(2-(4-Fluoro-3,5-dimethoxyphenyl)cyclopropyl)-2,2′-bipyrimidine]",6.96,
"COc1cc(C2CC2c2cnc(-c3ncccn3)nc2)cc(OC)c1F (single isomer, unassigned) [Example 147, trans-5-(2-(4-Fluoro-3,5-dimethoxyphenyl)cyclopropyl)-2,2′-bipyrimidine]",5.00,
"COc1cc(C2CC2c2cnc(-c3ncccn3)nc2)cc(Cl)c1F (single isomer, unassigned) [Example 148, trans-5-(2-(3-Chloro-4-fluoro-5-methoxyphenyl)cyclopropyl)-2,2′-bipyrimidine]",6.00,
"COc1cc(C2CC2c2cnc(-c3ncccn3)nc2)cc(Cl)c1F (single isomer, unassigned) [Example 149, trans-5-(2-(3-Chloro-4-fluoro-5-methoxyphenyl)cyclopropyl)-2,2′-bipyrimidine]",7.21,
"COc1cc(C2CC2c2cnc(-c3ncccn3)nc2)cc(C)c1F (single isomer, unassigned) [Example 150, trans-5-(2-(4-Fluoro-3-methoxy-5-methylphenyl)cyclopropyl)-2,2′-bipyrimidine]",6.00,
"COc1cc(C2CC2c2cnc(-c3ncccn3)nc2)cc(C)c1F (single isomer, unassigned) [Example 151, trans-5-(2-(4-Fluoro-3-methoxy-5-methylphenyl)cyclopropyl)-2,2′-bipyrimidine]",7.09,
"COCCCOc1cc(F)c(Cl)cc1C1CC1c1cnc(-c2ncccn2)nc1 (single isomer, unassigned) [Example 154, trans-5-(2-(5-Chloro-4-fluoro-2-(3-methoxypropoxy)phenyl)cyclopropyl)-2,2′-bipyrimidine]",6.52,
"COCCCOc1cc(F)c(Cl)cc1C1CC1c1cnc(-c2ncccn2)nc1 (single isomer, unassigned) [Example 155, trans-5-(2-(5-Chloro-4-fluoro-2-(3-methoxypropoxy)phenyl)cyclopropyl)-2,2′-bipyrimidine]",5.52,
"COCCOc1cc(F)c(Cl)cc1C1CC1c1cnc(-c2ncccn2)nc1 (single isomer, unassigned) [Example 156, trans-5-(2-(5-Chloro-4-fluoro-2-(2-methoxyethoxy)phenyl)cyclopropyl)-2,2′-bipyrimidine]",6.72,
"COCCOc1cc(F)c(Cl)cc1C1CC1c1cnc(-c2ncccn2)nc1 (single isomer, unassigned) [Example 157, trans-5-(2-(5-Chloro-4-fluoro-2-(2-methoxyethoxy)phenyl)cyclopropyl)-2,2′-bipyrimidine]",4.31,
"COc1cc(C2CC2c2cnc(-c3ncccn3)nc2)c(-c2ccccc2)cc1Cl (single isomer, unassigned) [Example 158, trans-5-(2-(5-Chloro-4-methoxy-[1,1′-biphenyl]-2-yl)cyclopropyl)-2,2′-bipyrimidine]",5.52,
"COc1cc(C2CC2c2cnc(-c3ncccn3)nc2)c(-c2ccccc2)cc1Cl (single isomer, unassigned) [Example 159, trans-5-(2-(5-Chloro-4-methoxy-[1,1′-biphenyl]-2-yl)cyclopropyl)-2,2′-bipyrimidine]",4.31,
"Fc1cc(C2CC2c2cnc(-c3ncccn3)nc2)cc(F)c1F (single isomer, unassigned) [Example 161, trans-5-(2-(3,4,5-Trifluorophenyl)cyclopropyl)-2,2′-bipyrimidine]",5.00,
"Fc1cc(C2CC2c2cnc(-c3ncccn3)nc2)cc(F)c1F (single isomer, unassigned) [Example 162, trans-5-(2-(3,4,5-Trifluorophenyl)cyclopropyl)-2,2′-bipyrimidine]",6.80,
"Fc1cc(C2CC2c2cnc(-c3ncccn3)nc2)cc(-n2ccnc2)c1F (single isomer, unassigned) [Example 181, trans-5-(2-(3,4-Difluoro-5-(1H-imidazol-1-yl)phenyl)cyclopropyl)-2,2′-bipyrimidine]",6.41,
"Fc1cc(C2CC2c2cnc(-c3ncccn3)nc2)cc(-n2ccnc2)c1F (single isomer, unassigned) [Example 182, trans-5-(2-(3,4-Difluoro-5-(1H-imidazol-1-yl)phenyl)cyclopropyl)-2,2′-bipyrimidine]",7.19,
"COc1cc(C2CC2c2cnc(-c3ncccn3)nc2)cnc1OC (single isomer, unassigned) [Example 183, trans-5-(2-(5,6-Dimethoxypyridin-3-yl)cyclopropyl)-2,2′-bipyrimidine]",,6.04
"COc1cc(C2CC2c2cnc(-c3ncccn3)nc2)cnc1OC (single isomer, unassigned) [Example 184, trans-5-(2-(5,6-Dimethoxypyridin-3-yl)cyclopropyl)-2,2′-bipyrimidine]",5.96,
"Fc1ccc(C2CC2c2cnc(-c3ncccn3)nc2)cc1OC(F)F (single isomer, unassigned) [Example 185, trans-5-(2-(3-(Difluoromethoxy)-4-fluorophenyl)cyclopropyl)-2,2′-bipyrimidine]",6.92,
